Data as given in patent US20260315452A1, “PROTEASE INHIBITORS AND USES THEREOF” (priority 2023, published 2026).
pEC50, pIC50: −log10 of the molar value.

Legend:
SARS-CoV-2 3CLpro [1] = target: T1, SARS-CoV-2 3CLpro (Severe acute respiratory syndrome coronavirus 2, UniProt P0DTD1); assay: biochemical; settings: inhibition of SARS-CoV-2 3CLpro; 15 nM 3CLpro, 25 μM fluorogenic substrate, 37° C.; read-out: Inhibitory Activity (IC50)
[2] = tested on: CYP1A2, CYP2C9, CYP2C19, CYP2D6 and CYP3A4; assay: CYP inhibition evaluation in human liver microsomes; assay type: in vitro ADME; settings: CYP1A2, 2C9, 2C19, 2D6, 3A4, up to 50 μM
Method: 20 μL of the substrate solutions of CYP1A2, CYP2C9, CYP2C19, CYP2D6 and CYP3A4 were each mixed with […] of the test compounds (final concentrations: 50 μM, 15 μM, 5 μM, 1.5 μM, 0.5 μM, 0.15 μM, 0.05 μM, 0 μM), followed by the addition of 158 μL of the HLM (Human liver microsome) working solution. Each of the mixtures was incubated at 37° C. for 10 minutes, and then mixed with 20 μL of NADPH cofactor, followed by incubation at 37° C. for additional 10 minutes. The reactions were terminated by adding 400 μL cold stop solution (200 ng/mL Tolbutamide and Labetalol in ACN). The samples are centrifuged at 4000 rpm for 20 minutes to precipitate protein. Next, 200 μL of the supernatant of each sample was transferred to 100 μL HPLC water and shaken for 10 minutes, and then analyzed by LC/MS/MS.

[3] = Plasma protein binding (PPB) by equilibrium dialysis; assay type: in vitro ADME; settings: human and mouse plasma, 4 hours, 37° C., versus Ref-2
Method: The binding of compounds Ref-2, 86, 97, 98 and 170 to human and mouse plasma were measured using equilibrium dialysis. A loading matrix was prepared by diluting of a 400 μM stock of each of the compounds in DMSO by the plasma matrix. To prepare the time zero (To) samples to be used for recovery determination, 50 μL of the loading matrix were transferred in triplicate to the sample collection plate, immediately matched with opposite blank buffer to obtain a final volume of 100 μL of 1:1 matrix/dialysis buffer (v/v) in each well, followed by the addition of 500 μL of stop solution (200 ng/mL of tolbutamide, 200 ng/mL of labetalol, and 50 ng/mL of metformin in acetonitrile) and then stored at 2-8° C. pending further processes along with other post-dialysis samples. To load the dialysis device, 150 μL of the loading matrix and 150 μL of the dialysis buffer were transferred to the donor side and the receiver side of each well, respectively. The dialysis plate was placed in a humidified incubator at 37° C. with 5% CO2 on a shaking platform that rotated slowly (about 100 rpm) for 4 hours, then 50 μL of samples were taken from both the buffer side and the matrix side, and transferred into new 96-well plates. Each sample was mixed with an equal volume of opposite blank buffer (or matrix) to reach a final volume of 100 μL, followed by the addition of 500 µL of stop solution. The mixture was vortexed and centrifuged at 4000 rpm for about 20 minutes, then […] of the supernatant of each sample was removed for LC-MS/MS analysis. The single blank samples were prepared by transferring 50 μL of blank matrix to a 96 well plate and adding 50 μL of blank PBS buffer to each well. The blank plasma must match the species of plasma used in the plasma side of the well. Then the matrix-matched samples were further processed by adding 500 μL of stop solution, following the same sample processing method as the dialysis samples. The % Unbound, % Bound and % Recovery were calculated using the following equations: […]
in which F is the analyte concentration or peak area ratio of analyte/internal standard on the buffer (receiver) side of the membrane, T is the analyte concentration or peak area ratio of analyte/internal standard on the matrix (donor) side of the membrane, and T0 is the analyte concentration or the peak area ratio of analyte/internal standard in the loading matrix sample at time zero.

Omicron SARS-CoV-2 = settings: FIG. 8, with Ref-2
SARS-CoV-2 3CLpro [4] = target: T1, SARS-CoV-2 3CLpro; assay: Co-crystal structure with SARS-CoV-2 3CLpro; assay type: binding; settings: co-crystal with SARS-CoV-2 3CLpro
SARS-CoV-2 = assay: Anti-SARS-CoV-2 activity in A549 cells expressing the human ACE2 receptor (inhibition of SARS-CoV-2 replication); assay type: cell-based; settings: for pEC50: Severe acute respiratory syndrome coronavirus 2, A549-ACE2, 24 h, read-out: Antiviral Activity (EC50); for antiviral potency in A549 cells in comparison with compound Ref-2: versus Ref-2 (FIG. 7)
SARS-CoV-2 3CLpro [5] = target: T1, SARS-CoV-2 3CLpro; assay type: binding; settings: ITC, 25° C., pH 7.4; versus Ref-2 (compound P2)

SMILES | pIC50 (SARS-CoV-2 3CLpro [1]) | effect on different CYP isoforms [2] | free PPB ratio in comparison with compound Ref-2 [3] | activity against Omicron SARS-CoV-2 in Caco-2 cells (Omicron SARS-CoV-2) | binding site/mode in crystal structure (SARS-CoV-2 3CLpro [4]) | pEC50 (SARS-CoV-2) | binding affinity (dissociation constant, Kd) in comparison with compound Ref-2 (SARS-CoV-2 3CLpro [5]) | antiviral potency in A549 cells in comparison with compound Ref-2 (SARS-CoV-2)
CNC(=O)c1cc(Cl)cc([N+](=O)[O-])c1N[C@H]1CN(C(=O)c2cncc3cccnc23)CC[C@@H]1F [Compound 170, 5-chloro-2-(((3S, 4S)-4-fluoro-1-(1,6-naphthyridine-8-carbonyl)piperidin-3-yl)amino)-N-methyl-3-nitrobenzamide] | > 7.00 | little effect on different CYP isoforms | better free PPB ratios | – | – | – | – | –
CNC(=O)c1cc(Cl)cc([N+](=O)[O-])c1N[C@H]1CN(C(=O)c2cncc3ccn(C)c23)CCC1(F)F [Compound 86, (S)-5-chloro-2-((4,4-difluoro-1-(1-methyl-1H-pyrrolo [3,2-c]pyridine-7-carbonyl)piperidin-3-yl)amino)-N-methyl-3-nitrobenzamide] | > 7.00 | – | better free PPB ratios | – | – | – | – | –
CNC(=O)c1cc(Cl)cc([N+](=O)[O-])c1N[C@H]1CN(C(=O)c2cncc3cccnc23)CCC1(F)F [Compound 98, (S)-5-chloro-2-((4,4-difluoro-1-(1,6-naphthyridine-8-carbonyl)piperidin-3-yl)amino)-N-methyl-3-nitrobenzamide] | > 7.00 | little effect on different CYP isoforms | better free PPB ratios | stronger activity against Omicron SARS-CoV-2 | bind to 3CLpro similar to that of Compound 19 | > 7.00 | – | –
CNC(=O)c1cc(Cl)cc([N+](=O)[O-])c1N[C@H]1CN(C(=O)c2cncc3ccncc23)CCC1(F)F [Compound 97, (S)-5-chloro-2-((4,4-difluoro-1-(2,6-naphthyridine-4-carbonyl)piperidin-3-yl)amino)-N-methyl-3-nitrobenzamide] | > 7.00 | little effect on different CYP isoforms | better free PPB ratios | – | – | – | – | –
O=C(NC1CC(F)(F)C1)c1cc(Br)cc([N+](=O)[O-])c1N[C@H]1CN(C(=O)c2cncc3ccccc23)CC12CC2 [Compound 30, (R)-5-bromo-N-(3,3-difluorocyclobutyl)-2-((5-(isoquinoline-4-carbonyl)-5-azaspiro[2.4]heptan-7-yl)amino)-3-nitrobenzamide] | > 7.00 | – | – | – | – | > 7.00 | higher binding affinity | better antiviral potency
CNC(=O)c1cc(Br)cc([N+](=O)[O-])c1N[C@H]1CN(C(=O)c2cncc3ccccc23)CCC1(F)F [Compound 19, (S)-5-bromo-2-((4,4-difluoro-1-(isoquinoline-4-carbonyl)piperidin-3-yl)amino)-N-methyl-3-nitrobenzamide] | > 7.00 | – | – | – | bound into the catalytic pocket of 3CLpro | > 7.00 | higher binding affinity | better antiviral potency
